The results in this text go back to patent publication US8217055B2, “Pyrido-pyrazine derivatives useful as herbicidal compounds” (Syngenta Crop Protection LLC, priority 2006, dated 2012).

Structures are written as SMILES.

Holding throughout (assay): Example B2 herbicidal action, post-emergence, pots in glasshouse, evaluated after 13 days (10=total damage to plant; 0=no damage to plant)
What all share (type): in vivo
Holding throughout (conditions): rate 1000 g/ha

Experiment [1] relates to Echinochloa crus-galli. The procedure:
(§1) Seeds of a variety of test species were sown in standard soil in pots. After 8 days cultivation (post-emergence) under controlled conditions in a glasshouse (at 24/16° C., day/night; 14 hours light; 65% humidity), the plants were sprayed with an aqueous spray solution derived from the formulation of the technical active ingredient in acetone/water (50:50) solution containing 0.5% Tween 20 (polyoxyethelyene sorbitan monolaurate, CAS RN 9005-64-5). The test plants were then grown in a glasshouse under controlled conditions in a glasshouse (at 24/16° C., day/night; 14 hours light; 65% humidity) and watered twice daily. After 13 days, the test was evaluated (10=total damage to plant; 0=no damage to plant).

For experiment [2], the system named is Ipomea hederaceae. The procedure: as §1
Experiment [3] deals with Solanum nigrum. The procedure:
as §1

Experiment [4] has as its system Amaranthus retroflexus. The procedure: as §1
Experiment [5] concerns Setaria faberi. The procedure: as §1

As for `COc1ccc(OC(F)(F)F)cc1-c1c(O)c2nccnc2n(CC(F)F)c1=O` [B8], the “ECHCG damage score (10=total damage to plant; 0=no damage to plant)” value in experiment [1] turned out to be 9. In experiment [2], the “IPOHE damage score (10=total damage to plant; 0=no damage to plant)” value was found to be 9. Moreover, in experiment [3], the “SOLNI damage score (10=total damage to plant; 0=no damage to plant)” value stood at 9. In addition, the “AMARE damage score (10=total damage to plant; 0=no damage to plant)” value in experiment [4] worked out at 10. The “SETFA damage score (10=total damage to plant; 0=no damage to plant)” value in experiment [5] is listed as 9.

As to `O=c1c(-c2cc(Cl)ccc2C(F)(F)F)c(O)c2nccnc2n1CC(F)F` [B10], in experiment [1], the “ECHCG damage score (10=total damage to plant; 0=no damage to plant)” value is listed as 9. Also, the “IPOHE damage score (10=total damage to plant; 0=no damage to plant)” value in experiment [2] is on record as 10. In addition, in experiment [3], the “SOLNI damage score (10=total damage to plant; 0=no damage to plant)” value was found to be 10. Moreover, in experiment [4], the “AMARE damage score (10=total damage to plant; 0=no damage to plant)” value is listed as 10. Besides, the “SETFA damage score (10=total damage to plant; 0=no damage to plant)” value in experiment [5] is on record as 9.

As for `CC(C)(C)C(=O)Oc1c(-c2cc(Cl)ccc2C(F)(F)F)c(=O)n(CC(F)F)c2nccnc12` [A37], in experiment [1], the “ECHCG damage score (10=total damage to plant; 0=no damage to plant)” value is 5. Also, in experiment [2], the “IPOHE damage score (10=total damage to plant; 0=no damage to plant)” value is listed as 7. Also, the “SOLNI damage score (10=total damage to plant; 0=no damage to plant)” value in experiment [3] came out at 5. In addition, the “AMARE damage score (10=total damage to plant; 0=no damage to plant)” value in experiment [4] was determined as 6. In experiment [5], the “SETFA damage score (10=total damage to plant; 0=no damage to plant)” value was 7.

Regarding `O=C1c2nccnc2N(CC=C(Cl)Cl)C(=O)C1c1c(F)ccc(F)c1Cl` (stereo not shown) [D3], the “ECHCG damage score (10=total damage to plant; 0=no damage to plant)” value in experiment [1] is on record as 0. In addition, the “IPOHE damage score (10=total damage to plant; 0=no damage to plant)” value in experiment [2] is listed as 7. Further, in experiment [3], the “SOLNI damage score (10=total damage to plant; 0=no damage to plant)” value is on record as 7. For the same molecule, in experiment [4], the “AMARE damage score (10=total damage to plant; 0=no damage to plant)” value is reported as 9. Moreover, the “SETFA damage score (10=total damage to plant; 0=no damage to plant)” value in experiment [5] turned out to be 3.

For `CC(C)(C)C(=O)Oc1c(-c2cc(F)c(Cl)cc2Cl)c(=O)n(CC(F)F)c2nccnc12` [A17], the “ECHCG damage score (10=total damage to plant; 0=no damage to plant)” value in experiment [1] was 6. In addition, the “IPOHE damage score (10=total damage to plant; 0=no damage to plant)” value in experiment [2] is on record as 0. For the same molecule, in experiment [3], the “SOLNI damage score (10=total damage to plant; 0=no damage to plant)” value stood at 5. Moreover, in experiment [4], the “AMARE damage score (10=total damage to plant; 0=no damage to plant)” value came to 3. In addition, in experiment [5], the “SETFA damage score (10=total damage to plant; 0=no damage to plant)” value amounted to 7.

Turning to `CC(C)(C)C(=O)Oc1c(-c2ccccc2OC(F)F)c(=O)n(CC(F)F)c2nccnc12` [A28], the “ECHCG damage score (10=total damage to plant; 0=no damage to plant)” value in experiment [1] was 1. The “IPOHE damage score (10=total damage to plant; 0=no damage to plant)” value in experiment [2] turned out to be 8. For the same molecule, the “SOLNI damage score (10=total damage to plant; 0=no damage to plant)” value in experiment [3] is 10. Further, the “AMARE damage score (10=total damage to plant; 0=no damage to plant)” value in experiment [4] is listed as 9. In experiment [5], the “SETFA damage score (10=total damage to plant; 0=no damage to plant)” value was determined as 3.

On to `CC(C)(C)C(=O)Oc1c(-c2cc(F)ccc2Cl)c(=O)n(CC(F)F)c2nccnc12` [A14], for which the “ECHCG damage score (10=total damage to plant; 0=no damage to plant)” value in experiment [1] is given as 7. For the same molecule, the “IPOHE damage score (10=total damage to plant; 0=no damage to plant)” value in experiment [2] is on record as 10. In addition, the “SOLNI damage score (10=total damage to plant; 0=no damage to plant)” value in experiment [3] was found to be 10. For the same molecule, in experiment [4], the “AMARE damage score (10=total damage to plant; 0=no damage to plant)” value was 10. In experiment [5], the “SETFA damage score (10=total damage to plant; 0=no damage to plant)” value was determined as 9.

As for `COc1ccc(OC(F)(F)F)cc1-c1c(OC(=O)C(C)C)c2nccnc2n(CC(F)F)c1=O` [A23], the “ECHCG damage score (10=total damage to plant; 0=no damage to plant)” value in experiment [1] came out at 8. Besides, the “IPOHE damage score (10=total damage to plant; 0=no damage to plant)” value in experiment [2] is reported as 9. Besides, the “SOLNI damage score (10=total damage to plant; 0=no damage to plant)” value in experiment [3] is 10. Also, the “AMARE damage score (10=total damage to plant; 0=no damage to plant)” value in experiment [4] is given as 10. In experiment [5], the “SETFA damage score (10=total damage to plant; 0=no damage to plant)” value turned out to be 9.

For `CC(C)(C)C(=O)Oc1c(-c2c(F)ccc(Br)c2Cl)c(=O)n(CC(F)F)c2nccnc12` [A19], the “ECHCG damage score (10=total damage to plant; 0=no damage to plant)” value in experiment [1] was determined as 7. In experiment [2], the “IPOHE damage score (10=total damage to plant; 0=no damage to plant)” value was 9. Further, the “SOLNI damage score (10=total damage to plant; 0=no damage to plant)” value in experiment [3] was found to be 10. In addition, the “AMARE damage score (10=total damage to plant; 0=no damage to plant)” value in experiment [4] was found to be 10. Besides, the “SETFA damage score (10=total damage to plant; 0=no damage to plant)” value in experiment [5] stood at 8.

For the molecule `CC(C)(C)C(=O)Oc1c(-c2c(Cl)cc(C(F)(F)F)cc2Cl)c(=O)n(CC(F)F)c2nccnc12` [A9], in experiment [1], the “ECHCG damage score (10=total damage to plant; 0=no damage to plant)” value came to 7. Further, in experiment [3], the “SOLNI damage score (10=total damage to plant; 0=no damage to plant)” value came to 10. In experiment [4], the “AMARE damage score (10=total damage to plant; 0=no damage to plant)” value is 10. For the same molecule, in experiment [5], the “SETFA damage score (10=total damage to plant; 0=no damage to plant)” value amounted to 9.
